The subject of one assay is Sclerotinia sclerotiorum. The experiment in a line: Antifungal activity against Sclerotinia sclerotiorum. Format: functional, organism-based.
For assay [1], the system named is Trichophyton interdigitale. The experiment in a line: Antifungal activity against Trichophyton interdigitale. It counts as functional.
The subject of the next assay is Alternaria solani. In words: Antifungal activity against Alternaria solani relative to control. The arrangement: concentration or dose not given beside the values. Format: functional.
For the next assay, the system named is Bipolaris maydis. The experiment in a line: Antifungal activity against Bipolaris maydis relative to control. Format: functional. The arrangement: concentration or dose not given beside the values.
For assay [2], the system named is Sclerotinia. The experiment in a line: Antifungal activity against rape Sclerotinia rot at 50 ug/ml relative to control. Format: functional. Particulars: for inhibition at 50 µg/mL: Sclerotinia.
In assay [3] the test system is Sclerotinia. The experiment in a line: Antifungal activity against sunflower Sclerotinia rot at 50 ug/ml relative to control. Particulars: dose 50 µg/ml. Format: functional.
Assay [4] has as its system Candida albicans. In words: Antifungal activity against Candida albicans incubated for 24 hrs by well diffusion method. It counts as functional. A general note: Agar diffusion results depend on both activity and mobility in agar.
Assay [5] deals with Candida albicans. The experiment in a line: Antifungal activity against Candida albicans. It counts as functional, organism-based. Particulars: for MIC: Candida albicans.
Assay [6] has as its system Colletotrichum gloeosporioides. The experiment in a line: Antifungal activity against Colletotrichum gloeosporioides. It counts as functional.
For the next assay, the system named is Cytospora mali. In words: Antifungal activity against Valsa mali. It counts as functional.
The next assay relates to Alternaria brassicae. The experiment in a line: Antifungal activity against Alternaria brassicae. It counts as functional.
A further assay deals with Alternaria alternata. The experiment in a line: Antifungal activity against Alternaria alternata. Format: functional.
The next assay relates to Aspergillus niger. In words: Antifungal activity against Aspergillus niger assessed as inhibition of growth rate at 100 ug/ml by disc diffusion method relative to control. It counts as functional.
The next assay has as its system Bipolaris oryzae. In words: Antifungal activity against Helminthosporium oryzae assessed as inhibition of growth rate at 100 ug/ml by disc diffusion method relative to control. Format: functional.
The test system of assay [7] is Fusarium solani. The experiment in a line: Antifungal activity against Fusarium solani. It counts as functional, organism-based.
In assay [8] the test system is Candida albicans. In words: Antifungal activity against Candida albicans incubated for 72 hrs. Format: functional.
The test system of assay [9] is Fusarium solani. The experiment in a line: Antifungal activity against Fusarium solani incubated for 72 hrs. Particulars: Fusarium solani, 72 h. It counts as functional, organism-based.

Values after ≈ are worked out from the molar mass of the structure shown. Where only a bound is given, the exact number is not on record here.

`O=C(O)c1cc2c([nH]c3ccccc32)c(-c2ccc(Br)cc2)n1` came in with an EC50 with Sclerotinia sclerotiorum of 5.38 µM. As for `CCCCCCCc1nccc2c1[nH]c1ccccc12`, the MIC – broadly, the smallest concentration in the dilution series that meets the test's criterion for growth inhibition – in assay [1] came to 12.5 µg/mL (≈ 46.9 µM).

With `Cc1nccc2c1[nH]c1ccc(Br)cc12`, the Activity in the assay on Alternaria solani came to 73.7%; in the assay with Bipolaris maydis, 86.4%. Take `CCCCCCCCCc1nccc2c1[nH]c1ccccc12`: the lowest concentration to inhibit growth in [1] (MIC) was 3.2 µg/mL (≈ 10.9 µM). As to `CCCCn1c2ccccc2c2ccnc(-c3nc4ccccc4[nH]3)c21`, the Activity in the assay on Sclerotinia [2] (dose 50 µg/ml) is 80.46%. With `Cc1nccc2c3ccccc3n(Cc3cn(-c4ccccc4)nn3)c12`, the Activity in the assay with Sclerotinia [3] is listed as 85.04%. With `Cc1nccc2c1[nH]c1ccccc12` [HARMAN], 200 µg/mL (≈ 1100 µM) was the least that counted as inhibitory in [1] (MIC). Also, the Activity in the assay on Alternaria solani is listed as 68.4%; in the assay with Bipolaris maydis, 36.4%. Take `C=CCCCCCCCCCOC(=O)c1cc2c([nH]c3ccccc32)c(-c2ccc(O)cc2)n1`: the MIC in the assay with Candida albicans [4] and in the assay on Candida albicans [5] was 2.8 µg/mL (≈ 6.13 µM) throughout. On to `Cc1nccc2c3ccccc3n(Cc3cn(-c4ccc(C(F)(F)F)cc4)nn3)c12`, for which the Activity with Sclerotinia [3] is on record as 86.93%. For the compound `COc1cc(C2c3[nH]c4ccccc4c3C[C@H]3C(=O)N4CCC[C@H]4C(=O)N23)ccc1O` (stereo partly specified), the MIC came to 12.5 µg/mL (≈ 29.9 µM) in [6], 6.25 µg/mL (≈ 15 µM) with Cytospora mali, 6.25 µg/mL (≈ 15 µM) against Alternaria brassicae and 12.5 µg/mL (≈ 29.9 µM) against Alternaria alternata. Turning to `COC1=CC(=O)C[C@@H](C)[C@]12Oc1c(Cl)c(OC)cc(OC)c1C2=O` [GRISEOFULVIN], the results for the inhibition at 100 µg/mL in the assay with Aspergillus niger and in the assay on Bipolaris oryzae were 20.3% and 20.4%, respectively. In the case of `N#Cc1c(Cl)c(Cl)c(Cl)c(C#N)c1Cl` [CHLOROTHALONIL], the results for the Activity in the assay with Alternaria solani and in the assay on Bipolaris maydis were 73.3% and 91.3%, respectively.

`c1ccc(Cn2c3ccccc3c3ccnc(-c4nc5ccccc5[nH]4)c32)cc1`: the inhibition (commonly the change of the read-out against control, counted positive when it falls) at 50 µg/mL in the assay on Sclerotinia [2] was found to be 88.5%. As for `Cc1ccc2c(c1)c1c(n2C)C=[N+](c2ccc(F)cc2)CC1`, the EC50 in the assay with Fusarium solani [7] is 5.44 µM. `CCCCCCc1nccc2c1[nH]c1ccccc12` had an MIC in assay [1] of 25 µg/mL (≈ 99.1 µM). In the case of `Oc1ccccc1C1NCCc2c1[nH]c1ccccc21` (stereo unspecified), the inhibition at 100 µg/mL with Aspergillus niger came to 21.2%; in the assay with Bipolaris oryzae it was 19.8%. With `C[n+]1ccc2c3ccccc3n(-n3c4ccccc4c4cc[n+](C)cc43)c2c1.[I-].[I-]`, in the assay with Candida albicans [5], the EC50 is listed as 0.5 uM/ml. For `Cc1nccc2c3ccccc3n(Cc3cn(-c4cc(F)c(F)c(F)c4)nn3)c12`, the Activity in the assay with Sclerotinia [3] turned out to be 85.98%. Take `CC1=NCCc2c1[nH]c1cc(O)ccc21` [HARMALOL]: the MIC against Candida albicans [8] is 750 µg/mL (≈ 3750 µM). Take `CCCCCCCCCCc1nccc2c1[nH]c1ccccc12`: the MIC in assay [1] was 1.6 µg/mL (≈ 5.19 µM). With `Cc1nccc2c1[nH]c1cc(OC(=O)NC(C)C)ccc12`, the values for the Activity in the assay on Alternaria solani and in the assay on Bipolaris maydis were 21.1% and 22.7%, respectively. As to `COc1ccc2c3c([nH]c2c1)C(C)=NCC3` [HARMALINE], the MIC against Candida albicans [8] amounted to 666 µg/mL (≈ 3110 µM).

For `O=C1[C@@H]2Cc3c([nH]c4ccccc34)C(c3ccccc3)N2C(=O)[C@@H]2CCCN12` (stereo partly specified), the MIC (in assay [6]; in the assay on Cytospora mali; against Alternaria brassicae; against Alternaria alternata) was 12.5 µg/mL (≈ 33.7 µM) throughout. The compound `COC(=O)Nc1nc2ccccc2[nH]1` [CARBENDAZIM] displayed an Activity in the assay on Sclerotinia [3] of 89.77%. In addition, in the assay with Fusarium solani [9], the EC50 is 4.34 µM. For `COc1cc(C2NCCc3c2[nH]c2ccccc32)ccc1O` (stereo unspecified), the inhibition at 100 µg/mL with Aspergillus niger amounted to 21.6%; in the assay with Bipolaris oryzae, 22.4%. For `Cc1ccc([N+]2=Cc3c(c4ccccc4n3C)CC2)cc1`, the EC50 in the assay with Fusarium solani [7] was determined as 2.47 µM.

Take `C=CCCCCCCCCCOC(=O)c1cc2c([nH]c3ccccc32)c(-c2ccc(OC)cc2)n1`: the minimal inhibitory concentration (MIC) in the assay on Candida albicans [4] and in the assay on Candida albicans [5] was 8.6 µg/mL (≈ 18.3 µM) in each case. In the assay with Candida albicans [4], `Clc1ccc(COC(Cn2ccnc2)c2ccc(Cl)cc2Cl)c(Cl)c1` (stereo unspecified) [MICONAZOLE] yielded an MIC of 7.8 µg/mL (≈ 18.7 µM).

Take `O=C(Nc1ccccc1-c1ccc(Cl)cc1)c1cccnc1Cl` [BOSCALID]: the EC50 in the assay on Sclerotinia sclerotiorum came to 0.9 µM. Compound `Cc1cccc([N+]2=Cc3c(c4ccccc4n3C)CC2)c1` had an EC50 with Fusarium solani [7] of 3.03 µM.

Take `c1ccc2c(c1)c1ccncc1n2-n1c2ccccc2c2ccncc21`: the EC50 with Candida albicans [5] is on record as more than 1 uM/ml. The compound `CC[C@@H](C)[C@@H]1COC(c2nccc3c2[nH]c2ccccc23)=N1` displayed an EC50 in the assay with Sclerotinia sclerotiorum of 17.7 µM. With `CN(C)c1ccc(C2NCCc3c2[nH]c2ccccc32)cc1` (stereo unspecified), the inhibition at 100 µg/mL was 20.8% in the assay with Aspergillus niger and 21.6% with Bipolaris oryzae.

`Cn1c2c(c3ccccc31)CC[N+](c1ccc(F)cc1)=C2` showed an EC50 with Fusarium solani [7] of 2.18 µM.

As to `CC(C)Cc1nccc2c1[nH]c1ccccc12`, inhibition of growth in [1] (MIC) required 100 µg/mL (≈ 446 µM).

`Cc1nccc2c1[nH]c1ccc([N+](=O)[O-])cc12`: the Activity in the assay with Alternaria solani turned out to be 33.3%; in the assay with Bipolaris maydis it was 31.6%. Consider `CCn1c2ccccc2c2ccnc(-c3nc4ccccc4[nH]3)c21`, for which at 50 µg/mL the inhibition with Sclerotinia [2] was 92%.

For the origin of these results see ChEMBL document CHEMBL5136985, “Natural and synthetic β-carboline as a privileged antifungal scaﬀolds” (Eur J Med Chem, 2022).
